Assay results: publication PMC10141516 (Pharmaceutics, 2023)

Assay: Compatibility study API-excipient / API-API (total impurities by HPLC)
Assay type: physicochemical
Description: The column used was the Gemini C18 column (5.0 μm, 250 mm). […] The mobile phase was filtered through a 0.4 μm polypropylene membrane filter and degassed via sonication. […] The column and sample thermostats were set to 35 °C and 5 °C, respectively. […] The compatibility study was performed using appearance and impurity tests to confirm the interaction between each API and the excipient. Each API was mixed with mannitol, microcrystalline cellulose, lactose, silicified microcrystalline cellulose, calcium hydrogen phosphate anhydrous, pregelatinized starch, sodium starch glycolate, crospovidone, sodium croscarmellose, magnesium stearate, colloidal silicon dioxide, sodium stearyl fumarate, hydroxypropyl cellulose, calcium hydroxide, citric acid, and OPADRY II pink in a 1:1 (w/w) ratio and put into each clear glass vial.

Compound	Total Impurities (20 ± 2 °C/60 ± 5% RH, 2 Weeks)	Total Impurities (20 ± 2 °C/60 ± 5% RH, 4 Weeks)	Total Impurities (40 ± 2 °C/75 ± 5% RH, 2 Weeks)	Total Impurities (40 ± 2 °C/75 ± 5% RH, 4 Weeks)	Total Impurities (Initial)
CCOc1ccc(Cc2cc([C@@H]3O[C@H](CO)[C@@H](O)[C@H](O)[C@H]3O)ccc2Cl)cc1 [Dapagliflozin, (1S)-1,5-Anhydro-1-C-[4-chloro-3-[(4-ethoxyphenyl)methyl]phenyl]-D-glucitol (S)-propane-1,2-diol (1:1) monohydrate]	0.10%	0.09%	0.08%	0.12%	0.09%
N[C@@H](CC(=O)N1CCn2c(nnc2C(F)(F)F)C1)Cc1cc(F)c(F)cc1F.O.O=P(O)(O)O [Sitagliptin, (R)-3-Amino-1-(3-(trifluoromethyl)-5,6-dihydro-[1,2,4]triazolo[4,3-a]pyrazin-7(8H)-yl)-4-(2,4,5-trifluorophenyl)butan-1-one phosphate monohydrate]	0.00%	0.00%	0.00%	0.00%	0.00%
